Results: ChEMBL document CHEMBL3045624, “Quantitative structureactivity relationships for estimating the aryl hydrocarbon receptor binding affinities of resveratrol derivatives and the antioxidant activities of hydroxystilbenes” (Med Chem Res, 2010)
Values after ≈ are worked out from the molar mass of the structure shown. Each block holds one compound with its values, some of them ahead of it.

How the values were obtained:
[1] = Antioxidant activity in CTAB micelles assessed as time required to inhibit AAPH-induced linoleic acid peroxidation; assay type: functional
[2] = Antioxidant activity in SDS micelles assessed as inhibition rate constant for AAPH-induced linoleic acid peroxidation; assay type: functional
[3] = Antioxidant activity assessed as time required to inhibit AAPH-induced human LDL peroxidation; assay type: functional
[4] = Antioxidant activity in CTAB micelles assessed as inhibition rate constant for AAPH-induced linoleic acid peroxidation; assay type: functional
[5] = Antioxidant activity assessed as time required to inhibit Cu2+-induced human LDL peroxidation; assay type: functional
[6] = Antioxidant activity in SDS micelles assessed as time required to inhibit AAPH-induced linoleic acid peroxidation; assay type: functional
[7] = Antioxidant activity assessed as inhibition rate constant in AAPH-induced human LDL peroxidation; assay type: functional
[8] = Antioxidant activity assessed as inhibition rate constant for reaction with peroxyl radicals; assay type: functional
[9] = target: T1, Aryl hydrocarbon receptor (Homo sapiens, UniProt P35869); assay: Binding affinity to aryl hydrocarbon receptor (unknown origin); conditions: read-out: Ki(app)
T1 sequence (P35869 whole entry): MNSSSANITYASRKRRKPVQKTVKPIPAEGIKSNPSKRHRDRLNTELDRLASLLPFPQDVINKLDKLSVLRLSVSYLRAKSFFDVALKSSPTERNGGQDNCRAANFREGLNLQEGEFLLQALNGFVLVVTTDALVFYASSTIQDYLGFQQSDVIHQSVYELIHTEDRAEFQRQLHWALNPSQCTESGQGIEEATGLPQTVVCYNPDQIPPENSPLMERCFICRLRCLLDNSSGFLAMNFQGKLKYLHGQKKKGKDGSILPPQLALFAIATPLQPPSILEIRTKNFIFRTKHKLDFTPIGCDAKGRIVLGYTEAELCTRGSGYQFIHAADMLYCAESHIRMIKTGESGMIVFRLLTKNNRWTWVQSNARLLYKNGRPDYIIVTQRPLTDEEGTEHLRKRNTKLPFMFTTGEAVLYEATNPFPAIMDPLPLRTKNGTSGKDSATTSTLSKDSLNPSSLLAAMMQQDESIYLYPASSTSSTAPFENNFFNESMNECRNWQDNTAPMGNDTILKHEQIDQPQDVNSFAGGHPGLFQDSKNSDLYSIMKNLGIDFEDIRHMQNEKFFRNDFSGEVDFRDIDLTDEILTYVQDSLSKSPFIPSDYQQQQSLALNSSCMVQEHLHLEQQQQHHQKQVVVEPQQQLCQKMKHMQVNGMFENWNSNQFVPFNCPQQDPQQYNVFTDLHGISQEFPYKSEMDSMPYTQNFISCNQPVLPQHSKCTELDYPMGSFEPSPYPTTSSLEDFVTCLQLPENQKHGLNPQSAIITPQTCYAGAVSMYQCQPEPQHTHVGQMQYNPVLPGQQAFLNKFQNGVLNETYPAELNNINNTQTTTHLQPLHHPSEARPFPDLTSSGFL

[10] = Antioxidant activity assessed as time required to induce lipid oxidation by Rancimat method; assay type: functional
[11] = system: Radical scavenging activity; assay: Antioxidant activity assessed as inhibition of DPPH free radical formation; assay type: functional; parameters: concentration or dose not given beside the values; conditions: dose or concentration not given here
Liver microsome = assay: Antioxidant activity in Rattus norvegicus Wistar (rat) liver microsomes assessed as inhibition of Fe2+/ascorbate-induced lipid peroxidation incubated for 10 min prior to Fe2+/ascorbate induction measured after 60 min by TBARS assay; assay type: functional
[12] = Antioxidant activity assessed as superoxide scavenging activity in riboflavin light-NBT system; assay type: functional
[13] = Antioxidant activity assessed as decrease in initial quantity of DPPH measured up to 6 hr by spectrophotometric analysis; assay type: functional

SMILES: Oc1ccc(/C=C/c2ccccc2)cc1O
TIME [1]: 4.1 ×10³ s
INH [2]: 2.9 ×10⁴ L/mol/s
TIME [3]: 0.65 h
INH [4]: 0.9 ×10⁴ L/mol/s
TIME [5]: 1.77 h
TIME [6]: 4.9 ×10³ s
INH [7]: 4.9 ×10⁵ L/mol/s

SMILES: Oc1ccc(/C=C/c2ccc(O)cc2)cc1
TIME [1]: 2.6 ×10³ s
INH [2]: 1.4 ×10⁴ L/mol/s
TIME [3]: 0.308 h
INH [4]: 0.8 ×10⁴ L/mol/s
TIME [5]: 1.28 h
TIME [6]: 3.2 ×10³ s
INH [7]: 8.2 ×10⁵ L/mol/s

SMILES: Oc1ccc(/C=C/c2ccccc2)c(O)c1
TIME [3]: 0.292 h
TIME [5]: 0.883 h
INH [7]: 6.2 ×10⁵ L/mol/s

SMILES: Oc1ccc(/C=C/c2ccc(O)cc2O)cc1
TIME [3]: 0.458 h
TIME [5]: 0.717 h
INH [7]: 3.3 ×10⁵ L/mol/s

SMILES: COc1cc(/C=C\c2ccc(O)c(OC)c2)cc(OC)c1
INH [8]: 5.7 ×10⁴ L/mol/s

SMILES: CCOc1ccc(/C=C\c2cc(OC)cc(OC)c2)cc1
Ki [9]: 0.012 µM

SMILES: COc1cc(/C=C\c2ccc(O)c(O)c2)cc(OC)c1
INH [8]: 76 ×10⁴ L/mol/s

SMILES: Oc1cc(O)cc(/C=C/c2ccc(O)c(O)c2)c1
TIME [10]: 60.3 h
inhibition [11]: 67.1%

SMILES: Oc1cc(O)cc(/C=C/c2cc(O)cc(O)c2)c1
TIME [10]: 3.7 h
inhibition [11]: 46.5%

SMILES: COc1cc(/C=C/c2cc(O)c(O)c(C(C)(C)C)c2)cc(OC)c1
INH [8]: 240 ×10⁴ L/mol/s

SMILES: COc1cc(/C=C/c2ccc(O)c(OC)c2)cc(OC)c1
INH [8]: 10 ×10⁴ L/mol/s

SMILES: COc1cc(/C=C\c2ccc(O)cc2)cc(OC)c1
INH [8]: 6.3 ×10⁴ L/mol/s

SMILES: Oc1cc(/C=C/c2ccccc2)cc(O)c1O
TIME [1]: 2.9 ×10³ s
INH [2]: 3.1 ×10⁴ L/mol/s
INH [4]: 1.3 ×10⁴ L/mol/s
TIME [6]: 2.4 ×10³ s

EC50 (Liver microsome): 241 µM
SMILES: Oc1ccc(/C=C\c2cc(O)cc(O)c2)cc1 [CIS-RESVERATROL]
INH [8]: 7.4 ×10⁴ L/mol/s

SMILES: COc1cc(/C=C\c2cc(C(C)(C)C)c(O)c(C(C)(C)C)c2)cc(OC)c1
INH [8]: 2.3 ×10⁴ L/mol/s

IC50 [12]: 9.2 µg/mL (≈ 23.6 µM)
SMILES: O=C(/C=C/c1ccc(O)c(O)c1)Oc1cc(O)cc(/C=C/c2ccc(O)cc2)c1

SMILES: COc1ccc(/C=C\c2cc(Cl)cc(Cl)c2)cc1
Ki [9]: 0.012 µM

SMILES: Oc1ccc(/C=C/c2ccc(O)c(O)c2)cc1O
TIME [3]: 0.85 h
TIME [5]: 1.78 h
INH [7]: 3.7 ×10⁵ L/mol/s

SMILES: Oc1ccc(/C=C/c2ccc(O)c(O)c2)cc1
TIME [1]: 5.1 ×10³ s
TIME [3]: 0.62 h
TIME [5]: 1.75 h
TIME [6]: 7.2 ×10³ s
INH [7]: 4.2 ×10⁵ L/mol/s

IC50 [12]: 10 µg/mL (≈ 24.6 µM)
SMILES: O=C(/C=C/c1cc(O)c(O)c(O)c1)Oc1cc(O)cc(/C=C/c2ccc(O)cc2)c1

SMILES: COc1ccc(/C=C\c2cc(OC)cc(OC)c2)cc1 [8Z-3,4',5-TRIMETHOXYSTILBENE]
Ki [9]: 0.012 µM

IC50 [12]: 16 µg/mL (≈ 42.1 µM)
SMILES: O=C(Oc1cc(O)cc(/C=C/c2ccc(O)cc2)c1)c1cc(O)c(O)c(O)c1

SMILES: COc1cc(/C=C/c2ccc(O)c(O)c2)cc(OC)c1
INH [8]: 110 ×10⁴ L/mol/s

EC50 (Liver microsome): 355 µM
EC50 [13]: 30.1 µM
SMILES: COc1cc(/C=C/c2ccc(O)cc2)cc(OC)c1 [PTEROSTILBENE]
INH [8]: 13 ×10⁴ L/mol/s

EC50 (Liver microsome): 135 µM
IC50 [12]: 106 µg/mL (≈ 464 µM)
SMILES: Oc1ccc(/C=C/c2cc(O)cc(O)c2)cc1 [RESVERATROL]
TIME [1]: 2.7 ×10³ s
TIME [10]: 12.3 h
INH [2]: 1.3 ×10⁴ L/mol/s
INH [8]: 14 ×10⁴ L/mol/s
TIME [3]: 0.397 h
INH [4]: 0.7 ×10⁴ L/mol/s
inhibition [11]: 55.1%
TIME [5]: 0.967 h
TIME [6]: 3.1 ×10³ s
INH [7]: 4.4 ×10⁵ L/mol/s

IC50 [12]: 3 µg/mL (≈ 11.5 µM)
SMILES: Oc1ccc(/C=C/c2cc(O)c(O)c(O)c2)cc1O

SMILES: Oc1cc(O)cc(/C=C/c2cc(O)c(O)c(O)c2)c1
TIME [10]: 48.1 h
inhibition [11]: 92.9%

SMILES: COc1cc(/C=C/c2cc(C(C)(C)C)c(O)c(C(C)(C)C)c2)cc(OC)c1
INH [8]: 6.8 ×10⁴ L/mol/s

SMILES: Oc1ccc(/C=C/c2ccccc2)cc1
TIME [1]: 1.7 ×10³ s
INH [2]: 1.2 ×10⁴ L/mol/s
INH [4]: 1 ×10⁴ L/mol/s
TIME [6]: 2.1 ×10³ s

IC50 [12]: 8.1 µg/mL (≈ 23.9 µM)
SMILES: Oc1cc(/C=C/c2cc(O)c(O)c(Br)c2)cc(O)c1O

SMILES: Oc1cc(O)cc(/C=C/c2ccccc2)c1
TIME [1]: 2.4 ×10³ s
TIME [10]: 2.3 h
INH [2]: 1.7 ×10⁴ L/mol/s
TIME [3]: 0.362 h
INH [4]: 0.5 ×10⁴ L/mol/s
inhibition [11]: 29.8%
TIME [5]: 0.717 h
TIME [6]: 1.5 ×10³ s
INH [7]: 3.3 ×10⁵ L/mol/s

IC50 [12]: 0.9 µg/mL (≈ 3.26 µM)
SMILES: Oc1cc(/C=C/c2cc(O)c(O)c(O)c2)cc(O)c1O

SMILES: Clc1ccc(/C=C\c2cc(Cl)cc(Cl)c2)cc1
Ki [9]: 0.012 µM

SMILES: Oc1ccc(/C=C/c2cc(O)c(O)c(O)c2)cc1
TIME [10]: 43 h
inhibition [11]: 92.9%

SMILES: CCCCOc1ccc(/C=C\c2cc(OC)cc(OC)c2)cc1
Ki [9]: 0.012 µM

SMILES: COc1ccc(/C=C/c2cc(O)cc(O)c2)cc1 [RESVERATROL 4'-METHYL ETHER]
EC50 (Liver microsome): 661 µM
EC50 [13]: 48.6 µM

SMILES: COc1cc(/C=C/c2ccc(O)c(OC)c2)ccc1O
TIME [3]: 0.85 h
TIME [5]: 1.47 h
INH [7]: 4.1 ×10⁵ L/mol/s
